# Earlier results as cited in US12018199B2, “Fire retardant and fire blocking composition for use in forest fires, and method of making same” (priority 2020, dated 2024).
# Where two headings read alike, the source gives them in different places.
# Conditions: in water
smiles,measurement,setting,value
"NC(N)=O [Urea, urea]",Solubility,0 °C,66.7 g/100 g of water
same,Solubility,20 °C,108 g/100 g of water
same,Solubility,40 °C,167 g/100 g of water
same,Solubility,60 °C,251 g/100 g of water
same,Solubility,80 °C,400 g/100 g of water
same,Solubility,100 °C,733 g/100 g of water
